Assay results published in patent US20230165869A1, “DIAZINE AND TRIAZINE COMPOUNDS TO TREAT CYTOKINE STORM SYNDROME” (UNIVERSITY OF GREENWICH, priority 2020, published 2023).
Like-named read-outs stand apart in the source and are kept apart here.

Tests used:
[1] = tested on: Tumour necrosis factor-α; test: Tumour necrosis factor-α secretion from PMA/ionomycin-stimulated PBMCs; type: cell-based; conditions: stimulated human PBMCs, result in words
Protocol: (§1) The compounds of Formula (I) may be investigated for inhibition of pro-inflammatory cytokines Interleukin (IL)-[…], 6,8 and 17A, Interferon (IFN)-gamma and Tumour necrosis factor (TNF)-α in peripheral blood mononuclear cells (PBMCs) isolated from fresh human buffy coats by centrifugation on Lymphoprep™ (Stemcell Technologies). All human cells are grown in cell culture medium RPMI-1640 supplemented with 1% penicillin/streptomycin and 5% heat inactivated fetal bovine serum.
(§2) PBMCs stimulated with PMA/ionomycin are incubated for 24 hours containing the compounds under investigation, reconstituted in DMSO. The secreted levels of Interferon-gamma and Tumour necrosis factor-α are measured in the cell culture supernatant using a Human Quantikine ELISA Kit and the cell viability is quantified using Trypan blue.

[2] = tested on: Interleukin-17A; test: Interleukin-17A secretion from PMA/ionomycin-stimulated PBMCs; type: cell-based, human; conditions: for inhibition of IL-17 / IL-17A: stimulated human PBMCs, result in words
Protocol: as §1
as §2, with “Interleukin-17A” for “Interferon-gamma and Tumour necrosis factor-α”, “cytometric bead array” for “Human Quantikine ELISA Kit”
(§3) 3,5-Diamino-6-(diphenylmethyl)-1,2,4-triazine was also investigated for […] inhibition in a human PBMC model: […]

[3] = tested on: Interleukin-6; test: Interleukin-6 secretion from LPS-stimulated PBMCs; type: cell-based; conditions: stimulated human PBMCs, result in words
Protocol: as §1
(§4) PBMCs stimulated with LPS (Salmonella enterica serotype typhimurium) are incubated for 24 hours containing the compounds under investigation, reconstituted in dimethyl sulfoxide (DMSO). The secreted levels of Interleukin-1β and Interleukin-6 are measured in the cell culture supernatant using a cytometric bead array and the cell viability is quantified using Trypan blue.

[4] = tested on: Interleukin-1β; test: Interleukin-1β secretion from LPS-stimulated PBMCs; type: cell-based; conditions: stimulated human PBMCs, result in words
Protocol: as §1, §4

[5] = tested on: Interleukin-8; test: Interleukin-8 secretion from PBMCs stimulated with TNF-α and IL-17A; type: cell-based; conditions: stimulated human PBMCs, result in words
Protocol: as §1
(§5) PBMCs stimulated with a mixture between TNF-α and IL-17A are incubated for 24 hours whilst containing the compounds under investigation, reconstituted in DMSO. The secreted levels of Interleukin-8 are measured in the cell culture supernatant using a cytometric bead array and the cell viability is quantified using Trypan blue.

[6] = tested on: Interferon-gamma; test: Interferon-gamma secretion from PMA/ionomycin-stimulated PBMCs; type: cell-based; conditions: stimulated human PBMCs, result in words
Protocol: as §1, §2

[7] = tested on: T cell; test: T cell proliferation in the IL-2/IL-4 inhibition assays; type: cell-based, human
Protocol: (§6) The compounds may be investigated for inhibition of pro-inflammatory cytokines Interleukin-2, 4 and 13 in human CD4-positive T cells isolated from fresh isolated PBMCS using a CD4-positive T cell isolation kit.
(§7) CD4-positive T cells stimulated with beads coated with antibodies against CD2, CD3 and CD28 are incubated for 48 hours containing the compounds under investigation, reconstituted in DMSO. The secreted levels of Interleukin-2, 4 and 13 are measured in the cell culture supernatant using a cytometric bead array and the cell viability is measured using an MTT (3-(4,5-dimethylthiazol-2-yl)-2,5-diphenyltetrazolium bromide) assay.
(§8) Secreted IL-4 levels may be measured using electrochemiluminescence (MSD kits, Meso Scale Discovery), while secreted IL-2 levels may be measured using proximity homogenous time-resolved fluorescence (HTRF) and the amount of living cells may be measured by addition of resazurin (PrestoBlue®).

[8] = tested on: IL-2; test: IL-2 release from stimulated CD4-positive T cells; type: cell-based, human
Protocol: as §6, §7, §8

[9] = tested on: PBMC; test: PBMC viability in the IL-17A human PBMC model; type: cell-based; conditions: Homo sapiens, PBMC
Protocol: as §5, with “PMA/ionomycin” for “a mixture between TNF-α and IL-17A”, “hours” for “hours whilst”, “Interleukin-17A” for “Interleukin-8”
as §3

[10] = PBMC viability in the IL-17A human PBMC model; type: cell-based; conditions: PBMCs stimulated with PMA/ionomycin; human PBMC model, maximum effect; read-out: Inhibition of PMBC viability, Max effect
Protocol: as §5, with “PMA/ionomycin” for “a mixture between TNF-α and IL-17A”, “hours” for “hours whilst”, “Interleukin-17A” for “Interleukin-8”
as §3

[11] = tested on: IL-4; test: IL-4 release from stimulated CD4-positive T cells; type: cell-based, human
Protocol: as §6, §7, §8

Nc1nnc(-c2sc(Cl)c(Cl)c2Cl)c(N)n1 [Compound 1, 3,5-diamino-6-[2-(3,4,5-trichlorothienyl)]-1,2,4-triazine]
inhibition of TNF-α [1]: high inhibition
inhibition of IL-17 / IL-17A [2]: moderate inhibition
inhibition of IL-6 [3]: high inhibition
inhibition of IL-1β [4]: high inhibition
inhibition of IL-8 [5]: high inhibition
inhibition of IFN-γ [6]: high inhibition

Nc1nnc(C(c2ccccc2)c2ccccc2)c(N)n1 [Compound 2, 3,5-Diamino-6-(diphenylmethyl)-1,2,4-triazine]
inhibition of TNF-α ([1]; at the top concentration): high inhibition
EC50 ([7]; Homo sapiens, T-cell, absolute EC50, read-out: Inhibition of T cell proliferation, Abs EC50): > 10000 nM
Emax ([7]; Homo sapiens, T-cell, maximum effect, read-out: Inhibition of T cell proliferation, Max Effect): 28%
EC50 ([7]; Homo sapiens, T-cell, relative EC50, read-out: Inhibition of T cell proliferation, Rel EC50): > 10000 nM
inhibition of T cell proliferation ([7]; result in words): without significant inhibition
EC50 ([8]; Homo sapiens, CD4 positive, absolute EC50, read-out: Inhibition of IL-2 release, Abs EC50): 15 nM
Emax ([8]; Homo sapiens, CD4 positive, maximum effect, read-out: Inhibition of IL-2 release, Max Effect): 97%
EC50 ([8]; Homo sapiens, CD4 positive, relative EC50, read-out: Inhibition of IL-2 release, Rel EC50): 28 nM
inhibition of IL-2 ([8]; result in words): good level of inhibition
EC50 ([9]; read-out: Inhibition of PMBC viability, Abs EC50): > 10000 nM
EC50 ([9]; read-out: Inhibition of PMBC viability, Rel EC50): 44000 nM
cytotoxicity at 24 h [10]: 38%
EC50 ([2]; human PBMC model, absolute EC50, read-out: Inhibition of IL-17A release, Abs EC50): 317 nM
Emax ([2]; human PBMC model, maximum effect, read-out: Inhibition of IL-17A release, Max effect): 86%
EC50 ([2]; human PBMC model, relative EC50, read-out: Inhibition of IL-17A release, Rel EC50): 261 nM
inhibition of IL-17 / IL-17A [2]: high inhibition
inhibition of IL-6 [3]: moderate inhibition
inhibition of IL-1β [4]: moderate inhibition
inhibition of IL-8 [5]: high inhibition
EC50 ([11]; Homo sapiens, CD4 positive, absolute EC50, read-out: Inhibition of IL-4 release, Abs EC50): 61.3 nM
Emax ([11]; Homo sapiens, CD4 positive, maximum effect, read-out: Inhibition of IL-4 release, Max Effect): 99%
EC50 ([11]; Homo sapiens, CD4 positive, relative EC50, read-out: Inhibition of IL-4 release, Rel EC50): 50.5 nM
EC50 ([11]; relative EC50, read-out: Inhibition of IL-4 release, Rel EC50): 58.4 nM
inhibition of IL-4 ([11]; result in words): good level of inhibition
inhibition of IFN-γ [6]: high inhibition
